Source: patent US20250049737A1, “Lauflumide and derivatives thereof for treating chronic fatigue syndrome and myalgic encephalomyelitis/chronic fatigue syndrome (ME/CFS)” (NLS Pharmaceutics AG, priority 2021, published 2025)
Entries after “also recorded” stand apart in the source; their conditions may differ.

How the values were obtained:
[1] = system: Rat model of severe fatigue; assay: Rat model of severe fatigue (sleep deprivation): recording of circadian locomotor activity; assay type: in vivo, Rats, Sprague-Dawley; conditions: for Difference of distance travelled between the dark phase and the light phase / Distance travelled during the 12-h dark phase / Distance travelled during the 12-h light phase / Total distance travelled during the full 24-h period: days 1, 2 and 3
Method: In the following example, Lauflumide is also called NLS-4.
Animals are individually housed in transparent polycarbonate cages (1354G Eurostandard Type IV cage, Tecniplast, Italy, 595×380×200 mm, floor area=1820 cm^2) filled with water (23±1° C.) to a height of 1.5 cm. A platform (5 cm height, 6.5 cm diameter) was located at the center of the cage. Animals can stay on the platform in order to stay dry but falls from it when it falls in deep sleep. […] During this period, animals were placed in a modified light/dark cycle with variable durations of the light and dark periods which change every day. This procedure is intended to disrupt the circadian rhythm.
The Sham group was housed in normal condition for the same period under a 12/12 h light/dark cycle.
After the end of the fatigue period, animals were placed in transparent polycarbonate cages (Type E, Iffa Credo, France, 450×300×200 mm, floor area=1032 cm^2), under a 12 h/12 h cycle. Cages were covered with a stainless steel grid in which food and a bottle are placed. A stainless steel removable divider separated food and water. The cages were placed in infrared photobeam detection systems (Acti-track, LSI Leticca, Panlab) allowing to record continuously the distance travelled in the cage. Locomotor activity was recorded continuously for 3 days. The test started at the beginning of the dark phase of the light/dark cycle.
Seventy-six animals were subjected to the fatigue procedure and to the tests as described above. Twelve animals (Sham group) were housed in standard condition.
(§1) After the end of the Fatigue procedure, animals were divided into 10 groups which received before tests (total: 3 administrations) a per-os (p.o., oral gavage) administration of: • Sham (no fatigue) group (N=12): Vehicle. • Control group (N=11): Vehicle. • Modafinil 32 (N=10): modafinil (32 mg/kg). • Modafinil 64 (N=10): modafinil (64 mg/kg). • Modafinil 128 (N=5): modafinil (128 mg/kg). • NLS-4 16 (N=5): NLS-4 (16 mg/kg). • NLS-4 32 (N=10): NLS-4 (32 mg/kg). • NLS-4 64 (N=10): NLS-4 (64 mg/kg). • NLS-4 128 (N=10): NLS-4 (128 mg/kg). • NLS-4 256 (N=5): NLS-4 (256 mg/kg).
Read-out: distance travelled during 24-h periods, 12-h dark and light periods and during 2-h periods.
Data are expressed as mean and standard error of mean (SEM).
Statistical analyses: Student's t test, repeated measure ANOVA.
A difference is considered statistically significant at p≤0.05.

[2] = Body weight during fatigue procedure and test period; assay type: in vivo, Rats, Sprague-Dawley; conditions: 32-128 mg/kg p.o.; test period
Method: FIG. 26 Body weight (in g; mean, SEM) before the beginning and during the fatigue procedure (F-D1-7) and during the test period (T-D1-D3+24 h).
Animals were weighed every day.
as §1

[3] = system: cocaine conditioned place preference; conditions: 128 mg/kg; rats; cited from earlier work
[4] = 32 mg/kg p.o., vs. Control (fatigue) group
[5] = 32 mg/kg p.o., vs. Sham (no fatigue) group
[6] = 64 mg/kg p.o., vs. Control (fatigue) group
[7] = 64 mg/kg p.o., vs. Sham (no fatigue) group
[8] = 128 mg/kg p.o., vs. Control (fatigue) group
[9] = 128 mg/kg p.o., vs. Sham (no fatigue) group

In the case of `NC(=O)C[S+]([O-])C(c1ccccc1)c1ccccc1` (stereo not drawn) [Modafinil, reference compound], the “Motor activity during the first 2-h periods following the dosing” value ([1]; 32 mg/kg p.o.) is reported as “increased”, the “Activity during the following 22 h” value ([1]; 32 mg/kg p.o., after the first 2-h period following dosing) is reported as “few or no modification” and the “Difference of distance travelled between the dark phase and the light phase” value (“Difference” for short) [1, 4] is reported as “not significantly different”. For the same compound, the “Distance travelled during the 12-h dark phase” value [1, 4] was “not significantly different”, the “Distance travelled during the 12-h light phase” value [1, 4] was “not significantly different” and the “Total distance travelled during the full 24-h period” value [1, 4] was “not significantly different”. For the same compound, the “Difference” value [1, 5] was “not lower than the Sham group on days 1 and 2 only”, the “Distance travelled during the 12-h dark phase” value [1, 5] was “lower than the Sham group during the dark phase on days 1 and 2 only” and the “Distance travelled during the 12-h light phase” value [1, 5] was “higher than the Sham group during the light phase on day 1 only”. For the same compound, the “Total distance travelled during the full 24-h period” value [1, 5] was “not significantly different”, the “Motor activity during the first 2-h periods following the dosing” value ([1]; 64 mg/kg p.o.) was “increased” and the “Difference” value [1, 6] was “higher; also recorded: increased”. The “Distance travelled during the 12-h dark phase” value [1, 6] was “higher”, the “Distance travelled during the 12-h light phase” value [1, 6] was “not significantly different” and the “Total distance travelled during the full 24-h period” value [1, 6] was “higher”. The “Difference” value [1, 7] was “not significantly different”, the “Distance travelled during the 12-h dark phase” value [1, 7] was “not significantly different” and the “Distance travelled during the 12-h light phase” value [1, 7] was “not significantly different”. For the same compound, the “Total distance travelled during the full 24-h period” value [1, 7] was “not significantly different”, the “Difference” value [1, 8] was “higher for the Modafinil 128 group than for the Control group on days 1 and 2 only; also recorded: increased” and the “Distance travelled during the 12-h dark phase” value [1, 8] was “higher for the Modafinil 128 group than for the Control group during the dark period on days 1 and 2 only”. For the same compound, the “Distance travelled during the 12-h light phase” value [1, 8] was “not significantly different”, the “Total distance travelled during the full 24-h period” value [1, 8] was “higher for the Modafinil 128 group than for the Control group on day 1 only” and the “Distance travelled during the 12-h dark phase” value [1, 9] was “increase the distance travelled in comparison with the Sham group during the dark phase on day 1”. For the same compound, the “Total distance travelled during the full 24-h period” value [1, 9] was “increase the distance travelled in comparison with the Sham group on day 1”, the “Weight loss induced by the fatigue procedure” value [2] was “not modified” and the “Cocaine conditioned place preference following extinction” value [3] was “strongly reinstated”.
